Reference: patent publication US6358885B1, “Substituted phenylheterocyclic herbicides” (Mississippi State University, priority 1992, dated 2002)

Columns and labels:
[1] = test system: rice; assay: Test C flood test plant response rating 0 to 100; format: in vivo, Oryza sativa; settings: for Plant response rating (0 to 100), Rice Japonica: under POSTEMERGENCE head (flood test species); for Plant response rating Rice Japonica: flood test species listed under POSTEMERGENCE, 0 to 100 scale
Description: (§1) The compounds evaluated in this test were formulated in a non-phytoxic solvent and applied to the soil surface before plant seedlings emerged (preemergence application), to water that covered the soil surface (flood application), and to plants that were in the one-to-four leaf stage (postemergence application). A sandy loam soil was used for the preemergence and postemergence tests, while a silt loam soil was used in the flood test. Water depth was approximately 2.5 cm for the flood test and was maintained at this level for the duration of the test. Plant species in the preemergence and postemergence tests consisted of barley (Hordeum vulgare), bedstraw (Galium aparine), blackgrass (Alopecurus myosuroides), chickweed (Stellaria media), corn (Zea mays), cotton (Gossypium hirsutum), crabgrass (Digitaria sanguinalis), downy brome (Bromus tectorum), giant foxtail (Setaria faberii), lambsquarters (Chenopodium album), morningglory (Ipomoea hederacea), pigweed ([…]), rape (Brassica napus), ryegrass (Lolium multiflorum), sorghum (Sorghum bicolor), soybean (Glycine max), speedwell (Veronica persica), sugar beet (Beta vulgaris), velvetleaf (Abutilon theophrasti), wheat (Triticum aestivum), wild buckwheat (Polygonum convolvulus), and wild oat (Avena fatua). All plant species were planted one day before application of the compound for the preemergence portion-of this test. Plantings of these species were adjusted to produce plants of appropriate size for the post-emergence portion of the test. […] All plant species were grown using normal greenhouse practices. Visual evaluations of injury expressed on treated plants, when compared to untreated controls, were recorded approximately fourteen to twenty one days after application of the test compound. […] A dash (-) response means no test result.

[2] = test system: rape; assay: Test B preemergence/postemergence greenhouse plant response rating 0 to 10; format: in vivo, Brassica napus; settings: 0 to 10 scale
How it was run: (§2)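 Postemergence treatment of plants two to eighteen cm tall ran alongside preemergence treatment of planted seed, each using compound in a non-phytotoxic solvent.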

[3] = test system: morningglory; assay: Test C preemergence/postemergence greenhouse plant response rating 0 to 100; format: in vivo, Ipomoea hederacea; settings: POSTEMERGENCE; for Plant response rating, Morningglory: 0 to 100 scale
Description: as §1

[4] = test system: crabgrass; assay: Test B preemergence/postemergence greenhouse plant response rating 0 to 10; format: in vivo, Digitaria spp.; settings: 0 to 10 scale
How it was run: as §2

[5] = test system: wild oat; assay: Test C preemergence/postemergence greenhouse plant response rating 0 to 100; format: in vivo, Avena fatua; settings: POSTEMERGENCE; for Plant response rating, Wild oat: 0 to 100 scale
Description: as §1

[6] = test system: giant foxtail; assay: Test B preemergence/postemergence greenhouse plant response rating 0 to 10; format: in vivo, Setaria faberii; settings: 0 to 10 scale
How it was run: as §2

[7] = test system: corn; assay: Test C preemergence/postemergence greenhouse plant response rating 0 to 100; format: in vivo, Zea mays; settings: POSTEMERGENCE; for Plant response rating, Corn: 0 to 100 scale
Description: as §1

[8] = test system: purple nutsedge; assay: Test B preemergence/postemergence greenhouse plant response rating 0 to 10; format: in vivo, Cyperus rotundus; settings: 0 to 10 scale
How it was run: as §2

[9] = test system: wheat; assay: Test C preemergence/postemergence greenhouse plant response rating 0 to 100; format: in vivo, Triticum aestivum; settings: POSTEMERGENCE; for Plant response rating, Wheat: 0 to 100 scale
Description: as §1

[10] = test system: wild buckwheat; assay: as above; format: in vivo, Polygonum convolvulus; settings: POSTEMERGENCE; for Plant response rating, Wild buckwheat: 0 to 100 scale
Description: as §1

[11] = test system: blackgrass; assay: Test B preemergence/postemergence greenhouse plant response rating 0 to 10; format: in vivo, Alopecurus myosuroides; settings: 0 to 10 scale
How it was run: as §2

[12] = test system: barnyardgrass; assay: as above; format: in vivo, Echinochloa crus-galli; settings: 0 to 10 scale
How it was run: as §2

Structure (SMILES): C=CCN1C(=O)COc2cc(F)c(-c3nn4c(c3Br)CCCC4)cc21 [Compound 41]
- Plant response rating (0 to 100), Rice Japonica ([1]; Rate 16 g/ha): 45
- Plant response rating (0 to 100), Rice Japonica ([1]; Rate 31 g/ha): 65
- Plant response rating Rice Japonica ([1]; 62 g/ha): 80
- Plant response rating Rice Japonica ([1]; 125 g/ha): 85
- Plant response rating, Rape ([2]; POSTEMERGENCE, Rate 50 g/ha): 10
- Plant response rating, Rape ([2]; PREEMERGENCE, Rate 50 g/ha): 10
- Plant response rating, Rape ([2]; Rate 200 g/ha, POSTEMERGENCE): 10
- Plant response rating, Rape ([2]; Rate 200 g/ha, PREEMERGENCE): 10
- Plant response rating, Morningglory ([3]; 62 g/ha): 100
- Plant response rating, Morningglory ([3]; 125 g/ha): 100
- Plant response rating (0 to 100), Morningglory ([3]; Rate 16 g/ha): 70
- Plant response rating (0 to 100), Morningglory ([3]; Rate 31 g/ha): 100
- Plant response rating, Crabgrass ([4]; POSTEMERGENCE, Rate 50 g/ha): 3
- Plant response rating, Crabgrass ([4]; POSTEMERGENCE, Rate 200 g/ha): 5
- Plant response rating, Crabgrass ([4]; PREEMERGENCE, Rate 50 g/ha): 0
- Plant response rating, Crabgrass ([4]; Rate 200 g/ha, PREEMERGENCE): 6
- Plant response rating, Wild oat ([5]; 62 g/ha): 40
- Plant response rating, Wild oat ([5]; 125 g/ha): 50
- Plant response rating (0 to 100), Wild oat ([5]; Rate 16 g/ha): 20
- Plant response rating (0 to 100), Wild oat ([5]; Rate 31 g/ha): 30
- Plant response rating, Giant foxtail ([6]; POSTEMERGENCE, Rate 50 g/ha): 4
- Plant response rating, Giant foxtail ([6]; PREEMERGENCE, Rate 50 g/ha): 1
- Plant response rating, Giant foxtail ([6]; Rate 200 g/ha, POSTEMERGENCE): 5
- Plant response rating, Giant foxtail ([6]; Rate 200 g/ha, PREEMERGENCE): 3
- Plant response rating, Corn ([7]; 62 g/ha): 40
- Plant response rating, Corn ([7]; 125 g/ha): 50
- Plant response rating (0 to 100), Corn ([7]; Rate 16 g/ha): 40
- Plant response rating (0 to 100), Corn ([7]; Rate 31 g/ha): 40
- Plant response rating, Nutsedge ([8]; POSTEMERGENCE, Rate 50 g/ha): 4
- Plant response rating, Nutsedge ([8]; PREEMERGENCE, Rate 50 g/ha): 0
- Plant response rating, Nutsedge ([8]; Rate 200 g/ha, POSTEMERGENCE): 4
- Plant response rating, Nutsedge ([8]; Rate 200 g/ha, PREEMERGENCE): 0
- Plant response rating, Wheat ([9]; 62 g/ha): 50
- Plant response rating, Wheat ([9]; 125 g/ha): 60
- Plant response rating (0 to 100), Wheat ([9]; Rate 16 g/ha): 40
- Plant response rating (0 to 100), Wheat ([9]; Rate 31 g/ha): 50
- Plant response rating, Wild buckwheat ([10]; 62 g/ha): 100
- Plant response rating, Wild buckwheat ([10]; 125 g/ha): 100
- Plant response rating (0 to 100), Wild buckwheat ([10]; Rate 16 g/ha): 95
- Plant response rating (0 to 100), Wild buckwheat ([10]; Rate 31 g/ha): 100
- Plant response rating, Blackgrass ([11]; POSTEMERGENCE, Rate 50 g/ha): 2
- Plant response rating, Blackgrass ([11]; POSTEMERGENCE, Rate 200 g/ha): 5
- Plant response rating, Blackgrass ([11]; PREEMERGENCE, Rate 50 g/ha): 6
- Plant response rating, Blackgrass ([11]; Rate 200 g/ha, PREEMERGENCE): 7
- Plant response rating, Barnyardgrass ([12]; POSTEMERGENCE, Rate 50 g/ha): 3
- Plant response rating, Barnyardgrass ([12]; POSTEMERGENCE, Rate 200 g/ha): 6
- Plant response rating, Barnyardgrass ([12]; PREEMERGENCE, Rate 50 g/ha): 4
- Plant response rating, Barnyardgrass ([12]; Rate 200 g/ha, PREEMERGENCE): 6
